Results on 22 compounds are retold here after the SangsterLogP compilation.

The nature of data set [1]: method code SF, from DOI: 10.1016/0223-5234(96)88244-4. Particulars: pH 7.4.

As usually defined, the logP is a log measure of how a compound divides between an organic and an aqueous phase. A higher logP goes with higher lipophilicity. `N#CN=C(NS(=O)(=O)c1cnccc1NC1CCCCCCC1)N1CCCC1` registered a logP of 2.15.

Compound `CC(C)NC(=NC#N)NS(=O)(=O)c1cnccc1NC1CCCCC1` registered a logP of 0.75.

Compound `CCNC(=NC#N)NS(=O)(=O)c1cnccc1NC1CCCCC1` came in with a logP of 0.16. Still for that read-out and setting: the same measure for `CCNC(=NC#N)NS(=O)(=O)c1cnccc1NC1CCCCCC1`: 0.75. Same read-out and setting: the same measure for `CCNc1ccncc1S(=O)(=O)NC(=NC#N)NC(C)C`: -1.02; for `CCCNc1ccncc1S(=O)(=O)NC(=NC#N)NC(C)C`: -0.43; for `CC(C)NC(=NC#N)NS(=O)(=O)c1cnccc1Nc1cccc(I)c1`: 1.51. `Cc1cccc(Nc2ccncc2S(=O)(=O)NC(=NC#N)NC(C)C)c1` had a logP of 0.86.

`CC(C)NC(=NC#N)NS(=O)(=O)c1cnccc1NC1CCCCCCC1` had a logP of 1.8. For the compound `CC(C)CNc1ccncc1S(=O)(=O)NC(=NC#N)NC(C)C`, the logP turned out to be 0.1.

`Cc1ccccc1Nc1ccncc1S(=O)(=O)NC(=NC#N)NC(C)C` came in with a logP of 0.67. In the case of `CC(C)NC(=NC#N)NS(=O)(=O)c1cnccc1Nc1cccc(Cl)c1`, the logP turned out to be 1.14. The same measure, in the same setting: the same measure for `CNc1ccncc1S(=O)(=O)NC(=NC#N)NC(C)C`: -1.43. One may read the logD as the decadic logarithm of the distribution of all forms, ionised or not, between an organic phase and buffer at a given pH. As for `N#CN=C(NS(=O)(=O)c1cnccc1NC1CCCCC1)N1CCCC1`, the pH-dependent lipophilicity (logD) in data set [1] was 1.07. `CC(C)NC(=NC#N)NS(=O)(=O)c1cnccc1Nc1ccc(Cl)cc1`: the logP is 1.37. On the same count and under the same terms, the same measure for `N#CN=C(NS(=O)(=O)c1cnccc1NC1CCCCCC1)N1CCCC1`: 1.65; for `CC(C)NC(=NC#N)NS(=O)(=O)c1cnccc1NC1CCCCCCCCCCC1`: 3.73.

For the compound `CC(C)NC(=NC#N)NS(=O)(=O)c1cnccc1NC1CC1`, the logP was -0.77.

`CC(C)N=C(NC#N)NS(=O)(=O)c1cnccc1Nc1cccc(F)c1` gave a logP of 0.59. On the same count and under the same terms, the same measure for `Cc1ccc(Nc2ccncc2S(=O)(=O)NC(=NC#N)NC(C)C)cc1`: 0.91; for `CC(C)NC(=NC#N)NS(=O)(=O)c1cnccc1NC1CCCC1`: 0.2. Still for that read-out and setting: the same measure for `CC(C)NC(=NC#N)NS(=O)(=O)c1cnccc1Nc1cccc(Br)c1`: 1.27.
